Consider seven compounds from patent US20100331315A1, “RHODANINES AND RELATED HETEROCYCLES AS KINASE INHIBITORS” (priority 2009, published 2010).

The test system of assay [1] is HCT-116 human colorectal carcinoma cells. Kind of assay: Alamar Blue cell proliferation assay, HCT-116. Type of assay: cell-based. The note with it: HCT-116, Table 1, read-out: AB: HCT-116 IC50. Here is the method:
(§1) A representative cell-proliferation assay protocol using Alamar Blue dye (stored at 4° C., use 20 ul per well) is described hereafter.
(§2) a. Split and trypsinize cells.
(§3) b. Count cells using hemocytometer.
(§4) c. Plate 4,000-5,000 cells per well in 100 μl of medium and seed into a 96-well plate according to the following plate layout. Add cell culture medium only to wells B10 to B12. Wells B1 to B9 have cells but no compound added.
(§5) d. Add 100 μl of 2× drug dilution to each well in a concentration shown in the plate layout above. At the same time, add 100 μl of media into the control wells (wells B10 to B12). Total volume is 200 μl/well.
(§6) e. Incubate four (4) days at 37° C., 5% CO2 in a humidified incubator.
(§7) f. Add 20 μl Alamar Blue reagent to each well.
(§8) g. Incubate for four (4) hours at 37° C., 5% CO2 in a humidified incubator.
(§9) h. Record fluorescence at an excitation wavelength of 544 nm and emission wavelength of 590 nm using a microplate reader.
(§10) In the assays, cells are cultured with a test compound for approximately four days, the dye is then added to the cells and fluorescence of […] dye is detected after approximately four hours. Different types of cells can be utilized in the assays (e.g., HCT-116 human colorectal carcinoma cells, PC-3 human prostatic cancer cells and MiaPaca human pancreatic carcinoma cells).
(The colour change of resazurin is a common sign of viable cells or microbes.)

Another assay deals with MV-4-11. Kind of assay: Alamar Blue cell proliferation assay, MV-4-11. Type of assay: cell-based. The note with it: Homo sapiens. In short, it runs like this: (§11)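 Fluorescence (ex 544 nm, em 590 nm) after a 4 h Alamar Blue incubation served as the read-out. Beforehand, 4,000-5,000 cells/well had been cultured with test compound for 4 days at 37° C, 5% CO2. Wells with cells but no drug, and wells with medium alone, provided the controls.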

In a further assay the test system is K-562. The experiment in a line: Alamar Blue cell proliferation assay, K-562. Type of assay: cell-based. The note with it: Homo sapiens. The method in brief:
as §11

A further assay relates to MOLM-13 (AML) xenograft. The note with it: MOLM-13 (AML) xenograft model; 2008 AACR Abstract No. 4974; cited from earlier work.
The test system of another assay is MV-4-11 (AML) xenograft. The note with it: MV-4-11 (AML) xenograft model; 2008 AACR Abstract No. 4974; cited from earlier work.
Assay [2] concerns leukemic cells from AML patients. The note with it: Fedorov et al., PNAS 104(51); cited from earlier work.
The next assay addresses recombinant PIM-1 (Homo sapiens, UniProt P11309). Kind of assay: PIM-1 assay (33P-ATP filter plate). Type of assay: biochemical. The note with it: Table 5; read-out: PIM1: IC50. The method in brief: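 Recombinant PIM-1 (1 ng) with 100 uM KKRNRTLTK, 15 uM ATP plus [γ-33P]ATP, 10 mM Mg acetate in MOPS pH 7.0, 4% DMSO. Reaction 40 min at 23° C, quenched with phosphoric acid; labeled peptide captured on phosphocellulose filter and counted by scintillation.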

For a further assay, the target named is recombinant human PIM2 (Homo sapiens, UniProt Q9P1W9). The experiment in a line: PIM-2 assay (33P-ATP filter plate). The note with it: Table 5. Type of assay: biochemical. The procedure:
PIM-2 Assay Method: Test compounds dissolved and diluted in DMSO (2 μl) were added to a reaction mixture comprising 10 μl of 5× Reaction Buffer (40 mM MOPS pH 7.0, 5 mM EDTA), 10 μl of recombinant human PIM2 solution (4 ng PIM-2 dissolved in dilution buffer (20 mM MOPS pH 7.0; EDTA 1 mM; 5% Glycerol; 0.01% Brij 35; […]; […] 2-mercaptoethanol; 1 mg/ml BSA)) and 8 ul of water. Reactions were initiated by the addition of 10 ul of ATP Solution (49% (15 mM MgCl2; 75 uM ATP) 1% ([γ-^33P]ATP: Stock 1 mCi/1000; 3000Ci/mmol (Perkin Elmer)) and 10 ul of substrate peptide solution (RSRSSYPAGT, dissolved in water at a concentration of 1 mM), Reactions were maintained for 10 min at 30° C. The reactions were quenched with 100 ul of 0.75% Phosphoric acid, then transferred to and filtered through a Phosphocellulose filter plate (Millipore, MSPH-N6B-50). After washing each well 4 times with 0.75% Phosphoric acid, scintillation fluid (20 uL) was added to each well and the residual radioactivity was measured using a Wallac luminescence counter.

For a further assay, the system named is BxPC3. Kind of assay: Alamar Blue cell proliferation assay, BxPC3. The note with it: Homo sapiens, BXPC-3, BxPC3, Table 5, read-out: AB: BxPC3 IC50. Type of assay: cell-based. Here is the method:
as §1, §2, §3, §4, §5, §6, §7, §8, §9, §10

Another assay has as its system MDAMB453. Kind of assay: Alamar Blue cell proliferation assay, MDAMB453. Type of assay: cell-based. The note with it: Homo sapiens, MDA-MB-453, MDAMB453, Table 5, read-out: AB: MDAMB453 IC50. The procedure: as §1, §2, §3, §4, §5, §6, §7, §8, §9, §10
A further assay relates to SUM-149PT. The experiment in a line: Alamar Blue cell proliferation assay, SUM-149PT. Type of assay: cell-based. The note with it: Homo sapiens, SUM149PT, Table 5, read-out: AB: SUM-149PT IC50. The procedure: as §1, §2, §3, §4, §5, §6, §7, §8, §9, §10
Another assay has as its target T1, recombinant human CK2 (Homo sapiens, UniProt P68400).
T1 construct: purchased Upstate
Kind of assay: CK2 assay (cell-free, 33P-ATP filter plate). The note with it: Table 5. Type of assay: biochemical. In short, it runs like this: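 Recombinant human CK2 (25 ng) with RRRDDDSDDD peptide in MOPS pH 7.2 buffer; started with ATP/MgCl2 plus [γ-33P]ATP (75 micromolar ATP in stock solution) for 10 minutes at 30 degrees C. Acid-quenched, captured on phosphocellulose filters, and incorporated radioactivity counted by scintillation.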

[3] abbreviates: MV4-11, MV-4-11, Table 5, read-out: AB: MV-4-11 IC50.
The mark [4] stands for this setting: K562, K-562, Table 5, read-out: AB: K-562 IC50.

Like-named read-outs stand apart in the source and are kept apart here.

T1 sequence (P68400 whole entry): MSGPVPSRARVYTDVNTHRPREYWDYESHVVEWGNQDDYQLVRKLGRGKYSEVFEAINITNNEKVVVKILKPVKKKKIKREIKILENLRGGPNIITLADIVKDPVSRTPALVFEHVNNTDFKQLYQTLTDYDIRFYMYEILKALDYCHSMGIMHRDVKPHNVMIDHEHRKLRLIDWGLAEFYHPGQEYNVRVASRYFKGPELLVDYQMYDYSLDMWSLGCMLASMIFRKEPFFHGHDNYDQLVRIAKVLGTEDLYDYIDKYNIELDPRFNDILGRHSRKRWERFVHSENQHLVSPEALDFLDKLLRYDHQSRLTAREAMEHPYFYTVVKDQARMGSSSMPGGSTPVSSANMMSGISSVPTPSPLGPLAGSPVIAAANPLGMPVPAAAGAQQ
T1 sequence (P67870 whole entry partner): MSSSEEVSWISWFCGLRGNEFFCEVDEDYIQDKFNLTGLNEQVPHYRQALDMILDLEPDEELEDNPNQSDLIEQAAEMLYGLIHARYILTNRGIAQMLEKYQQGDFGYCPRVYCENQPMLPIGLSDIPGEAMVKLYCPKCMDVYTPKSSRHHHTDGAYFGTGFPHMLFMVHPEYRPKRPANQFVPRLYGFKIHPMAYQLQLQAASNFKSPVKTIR
Chain of recombinant human PIM2 (Q9P1W9 whole entry): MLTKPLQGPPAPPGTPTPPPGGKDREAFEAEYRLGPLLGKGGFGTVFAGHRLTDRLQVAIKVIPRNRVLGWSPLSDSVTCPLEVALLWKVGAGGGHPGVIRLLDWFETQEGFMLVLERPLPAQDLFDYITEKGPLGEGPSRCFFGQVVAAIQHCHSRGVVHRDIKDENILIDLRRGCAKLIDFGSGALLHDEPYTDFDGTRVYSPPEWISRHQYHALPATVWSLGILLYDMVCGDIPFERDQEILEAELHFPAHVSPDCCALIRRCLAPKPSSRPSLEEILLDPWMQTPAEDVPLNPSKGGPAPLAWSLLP
Chain of recombinant PIM-1 (P11309 whole entry): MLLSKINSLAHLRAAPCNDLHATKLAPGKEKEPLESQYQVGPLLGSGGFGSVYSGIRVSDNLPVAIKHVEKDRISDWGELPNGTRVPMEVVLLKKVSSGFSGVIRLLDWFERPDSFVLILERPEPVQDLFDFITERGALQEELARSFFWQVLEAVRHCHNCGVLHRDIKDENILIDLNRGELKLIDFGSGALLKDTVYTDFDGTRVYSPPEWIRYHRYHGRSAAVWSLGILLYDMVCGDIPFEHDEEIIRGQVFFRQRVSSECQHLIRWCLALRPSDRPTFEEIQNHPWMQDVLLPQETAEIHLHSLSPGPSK

For `O=C(O)c1cccc(-c2ccc(/C=C3\SC(=S)N(Cc4ccccc4)C3=O)o2)c1`, the IC50 in assay [1] is above 10 µM.

In the case of `CN1C(=O)/C(=C/c2ccc(-c3cccc(C(=O)O)c3)o2)SC1=S`, the IC50 in assay [1] is above 10 µM.

On to `O=C1NC(=S)S/C1=C\c1ccc(-c2cccc(C(=O)O)c2)o1`, for which the half-inhibitory concentration (IC50) is above 10 µM in the assay with MV-4-11 (MV4-11, MV-4-11, Table 1, read-out: AB: MV-4-11 IC50); above 10 µM in assay [1]; above 10 µM in the assay with K-562 (K562, K-562, Table 1, read-out: AB: K-562 IC50).

In the case of `CN1CCC(CNc2ccc3ncc(-c4cccc(OC(F)(F)F)c4)n3n2)CC1` [SGI-1776], the tumor regression result with MOLM-13 (AML) xenograft and in the assay with MV-4-11 (AML) xenograft was “significant tumor regression” throughout.

With `CN(C)C[C@@H]1CCn2cc(c3ccccc32)C2=C(C(=O)NC2=O)c2cn(c3ccccc23)CCO1` [Ly5333′531], in [2], the “effect on cell growth and cell death” value is “suppressed cell growth and induced cell death”.

As to `Cc1ccc(-c2cncc(N3CCCN(C)CC3)n2)cc1/C=C1\SC(=O)NC1=O`, the IC50 is below 50 nM at recombinant PIM-1; 3.75 µM in the assay with MV-4-11 (setting [3]); 50 nM on recombinant human PIM2; 25.8 µM with BxPC3; 15.5 µM with MDAMB453; 8.7 µM with SUM-149PT. In addition, the IC50 in the assay with K-562 (setting [4]) came out at 6.54 µM; at recombinant human CK2 it was 50 nM.

Consider `Cc1ccc(-c2cncc(N3CCCN(C)CC3)n2)cc1/C=C1\SC(=S)NC1=O`, for which the IC50 is below 50 nM on recombinant PIM-1; 2.2 µM in the assay with MV-4-11 (setting [3]); below 50 nM at recombinant human PIM2; 16.3 µM in the assay on BxPC3; 22.2 µM with MDAMB453; 25.7 µM with SUM-149PT. For the same compound, the IC50 is 9.7 µM in the assay on K-562 (setting [4]) and below 50 nM on recombinant human CK2.

What is called IC50 is the concentration that inhibits the measured activity by half.
